This is an account of results in patent US9440933B2, “Azole derivative, method for producing same, intermediate compound, and agricultural or horticultural chemical agent and industrial material protecting agent” (KUREHA CORPORATION, priority 2011, dated 2016).

Structures are written as SMILES.

For series [1], the system named is Apple alternaria blotch-causing microbe (Alternaria alternata). Put plainly: Antimicrobial activity to various pathogenic microbes: A.m. The following applies: 50 mg/L.
Method: (§1) An inventive compound was dissolved in dimethylsulfoxide 2 ml. The solution 0.6 ml was added to a PDA medium (potato-dextrose-agar medium) 60 ml at around 60° C.
(§2) A flat plate containing a test microbe (wheat leaf blight-causing microbe) cultured separately was punched into pieces with a cork borer having a diameter of 4 mm and the circular plate obtained was placed on the flat plate media containing the chemical described above. The plates were cultured at 25° C. for 14 days after inoculation and the diameter of the microbial colony was determined. Hyphal expansion-inhibiting rate was calculated according to the following equation: R=100(dc−dt)/dc (wherein, R: hyphal expansion-inhibiting rate (%), dc: diameter of microbial colony on non-treated flat plate, dt: diameter of microbial colony on chemically-treated flat plate).
(§3) In this Test Example, the antimicrobial activity of the inventive compounds to various plant disease-causing fungi and industrial material-eroding microorganisms was studied by the method described in Example 1.
(§4) The results thus obtained were evaluated in 5 stages according to the criteria below:
Apple alternaria blotch-causing microbe (Alternaria alternata) A.m
In series [2] the test system is Wheat fusarium blight-causing microbe (Fusarium graminearum). It counts as cell-based. The following applies: 50 mg/L.
The subject of series [3] is Rice bakanae disease-causing microbe (Gibberella fujikuroi). The series is described as follows: Antimicrobial activity to various pathogenic microbes: G.f. To be noted: 50 mg/L.
Series [4] relates to Rice blast-causing microbe (Pyricularia oryzae). It counts as cell-based. The following applies: 50 mg/L.
The test system of series [5] is Barley loose smut-causing microbe (Ustilago nuda). Put plainly: Antimicrobial activity to various pathogenic microbes: U.n. The following applies: 50 mg/L.
Method: as §1
The plates were cultured at 25° C. for 14 days after inoculation and the diameter of the microbial colony was determined. Hyphal expansion-inhibiting rate was calculated according to the following equation: R=100(dc−dt)/dc (wherein, R: hyphal expansion-inhibiting rate (%), dc: diameter of microbial colony on non-treated flat plate, dt: diameter of microbial colony on chemically-treated flat plate).
as §4
Barley loose smut-causing microbe (Ustilago nuda) U.n
In series [6] the test system is wheat leaf rust-causing microbe. Put plainly: Wheat leaf rust-controlling activity (foliar spray, pot test). To be noted: Concentration 25 g/ha; wettable powder sprayed on wheat (Norin No. 61), 9 to 14 days after inoculation. It counts as in vivo, Puccinia recondita.
Series [7] concerns Wheat eye spot-causing microbe (Pseudocercoporella herpotrichoides). The series is described as follows: Antimicrobial activity to various pathogenic microbes: P.h. To be noted: 50 mg/L.
The test system of series [8] is wheat leaf blight-causing microbe. Put plainly: Antimicrobial activity to wheat leaf blight-causing microbe (PDA plate, hyphal expansion inhibition). It counts as cell-based, Septoria tritici. The following applies: PDA medium, 25° C., 14 days; for inhibition at 50 µg/mL: read-out: Growth inhibition. On the procedure:
In this Test Example, antimicrobial activity of the inventive compounds to wheat leaf blight-causing microbe was determined and compared with that of the comparative compound (1).

In series [9] the test system is Wheat glume blotch-causing microbe (Phaeosphaeria nodorum). Put plainly: Antimicrobial activity to various pathogenic microbes: P.n. To be noted: 50 mg/L.
Method: as §1, §2, §3, §4
Wheat glume blotch-causing microbe (Phaeosphaeria nodorum) P.n
In series [10] the test system is Sclerotinia rot-causing microbe (Sclerotinia sclerotiorum). Put plainly: Antimicrobial activity to various pathogenic microbes: S.s. The following applies: 50 mg/L.
Method: as §1, §2, §4
Sclerotinia rot-causing microbe (Sclerotinia sclerotiorum) S.s
Series [11] deals with Cucumber Fusarium wilt-causing microbe (Fusarium oxysporum). Put plainly: Antimicrobial activity to various pathogenic microbes: F.c. To be noted: 50 mg/L.
In series [12] the test system is Barley scald-causing microbe (Rhynchosporium secalis). Put plainly: Antimicrobial activity to various pathogenic microbes: R.sec. To be noted: 50 mg/L.
Method: as §1, §2, §3, §4
Barley scald-causing microbe (Rhynchosporium secalis) R.sec
Series [13] relates to Gray mold-causing microbe (Botrytis cinerea). Put plainly: Antimicrobial activity to various pathogenic microbes: B.c. The following applies: 50 mg/L.
Method: as §1, §2, §3, §4
Gray mold-causing microbe (Botrytis cinerea) B.c
Another series concerns wheat. The series is described as follows: Damage to wheat (growth inhibition) by seed treatment (pot test). To be noted: 2 mg in DMSO applied to wheat seeds 1 g, 14 to 28 days after seeding, larger index = smaller damage.
For series [14], the system named is wheat powdery mildew-causing microbes. The series is described as follows: Controlling activity to wheat powdery mildew of seed treatment (pot test). It counts as in vivo, Erysiphe graminis f. sp tritici. The following applies: 2 mg in DMSO applied to wheat seeds 1 g, 14 to 28 days after seeding. How it is done: Controlling activity to wheat powdery mildew was examined in a pot test. Each of the inventive compounds […]-53, and a comparative compound (1) was weighed in an amount of 2 mg and dissolved in DMSO (18 μl). The solution thus prepared was applied to wheat seeds 1 g in a vial, 8 wheat seeds were seeded in a 80 cm^2 pot. The wheat was grown, as water was supplied from blow, in a greenhouse where wheat powdery mildew-causing microbes are present abundantly. The incidence rate was determined and the controlling rate and additionally the controlling index calculated 14 to 28 days after seeding. The controlling rate was calculated and the wheat powdery mildew controlling index determined according to the following equation: Controlling rate=(1-Incidence rate in treated region/Incidence rate in non-treated region)×100(%) [table]

For the molecule `C=CCOC(=O)[C@]1(C)CC[C@@H](Cc2ccc(Cl)cc2)[C@]1(O)Cn1cncn1` (racemic) [Compound I-4, allyl-(1RS,2RS,3SR)-3-(4-chlorobenzyl)-2-hydroxy-1-methyl-2-(1H-1,2,4-triazol-1-ylmethyl)cyclopentanecarboxylate], the “Growth inhibition (hyphal expansion-inhibiting rate grade) A.m” value in series [1] is 5 (hyphal expansion-inhibiting rate: 80% or more). In addition, the “Growth inhibition (hyphal expansion-inhibiting rate grade) F.g” value in [2] is reported as 5 (hyphal expansion-inhibiting rate: 80% or more). In [3], the “Growth inhibition (hyphal expansion-inhibiting rate grade) G.f” value was 5 (hyphal expansion-inhibiting rate: 80% or more). In addition, the “Growth inhibition (hyphal expansion-inhibiting rate grade) P.o” value in series [4] is 5 (hyphal expansion-inhibiting rate: 80% or more). For the same molecule, the “Growth inhibition (hyphal expansion-inhibiting rate grade) U.n” value in [5] is listed as 5 (hyphal expansion-inhibiting rate: 80% or more). For the same molecule, the Controlling index in series [6] is 5 (81 to 100). Further, in [7], the “Growth inhibition (hyphal expansion-inhibiting rate grade) P.h” value is recorded as 5 (hyphal expansion-inhibiting rate: 80% or more). Moreover, in series [8] (336 h, Concentration 50 mg/L), the inhibition at 50 µg/mL is > 80%. The “Growth inhibition (hyphal expansion-inhibiting rate grade) P.n” value in series [9] is reported as 5 (hyphal expansion-inhibiting rate: 80% or more). For the same molecule, the “Growth inhibition (hyphal expansion-inhibiting rate grade) S.s” value in [10] is 5 (hyphal expansion-inhibiting rate: 80% or more). The “Growth inhibition (hyphal expansion-inhibiting rate grade) F.c” value in [11] was 5 (hyphal expansion-inhibiting rate: 80% or more). Moreover, the “Growth inhibition (hyphal expansion-inhibiting rate grade) R.sec” value in series [12] is 5 (hyphal expansion-inhibiting rate: 80% or more). For the same molecule, the “Growth inhibition (hyphal expansion-inhibiting rate grade) B.c” value in series [13] is listed as 5 (hyphal expansion-inhibiting rate: 80% or more).
`CCCOC(=O)[C@]1(C)CC[C@@H](Cc2ccc(Cl)cc2)[C@]1(O)Cn1cncn1` (racemic) [Compound I-6, n-propyl-(1RS,2RS,3SR)-3-(4-chlorobenzyl)-2-hydroxy-1-methyl-2-(1H-1,2,4-triazol-1-ylmethyl)cyclopentanecarboxylate]: the “Growth inhibition (hyphal expansion-inhibiting rate grade) A.m” value in [1] is given as 5 (hyphal expansion-inhibiting rate: 80% or more). The “Growth inhibition (hyphal expansion-inhibiting rate grade) F.g” value in series [2] is on record as 5 (hyphal expansion-inhibiting rate: 80% or more). Besides, the “Growth inhibition (hyphal expansion-inhibiting rate grade) G.f” value in series [3] is 5 (hyphal expansion-inhibiting rate: 80% or more). In series [4], the “Growth inhibition (hyphal expansion-inhibiting rate grade) P.o” value is recorded as 5 (hyphal expansion-inhibiting rate: 80% or more). Further, the “Growth inhibition (hyphal expansion-inhibiting rate grade) U.n” value in series [5] was 5 (hyphal expansion-inhibiting rate: 80% or more). The Controlling index in series [6] is on record as 5 (81 to 100). Also, the “Growth inhibition (hyphal expansion-inhibiting rate grade) P.h” value in series [7] is on record as 5 (hyphal expansion-inhibiting rate: 80% or more). Moreover, the “Damage index Growth inhibition” value in the series with wheat was 3 (20% or more and less than 40%). Also, the inhibition at 50 µg/mL in [8] (336 h, Concentration 50 mg/L) was > 80%. Moreover, the inhibition at 1.25 µg/mL in series [8] (336 h, test sample concentration 1.25 mg/L, read-out: hyphal expansion-inhibiting rate) is ≥ 80%. The “Growth inhibition (hyphal expansion-inhibiting rate grade) P.n” value in series [9] is listed as 5 (hyphal expansion-inhibiting rate: 80% or more). Also, the “Growth inhibition (hyphal expansion-inhibiting rate grade) S.s” value in series [10] is on record as 5 (hyphal expansion-inhibiting rate: 80% or more). Besides, in [14], the “Controlling index Wheat powdery mildew” value is reported as 5 (Controlling rate: 40 or more). Moreover, the “Growth inhibition (hyphal expansion-inhibiting rate grade) F.c” value in series [11] is 5 (hyphal expansion-inhibiting rate: 80% or more). Also, in series [12], the “Growth inhibition (hyphal expansion-inhibiting rate grade) R.sec” value is reported as 5 (hyphal expansion-inhibiting rate: 80% or more). In series [13], the “Growth inhibition (hyphal expansion-inhibiting rate grade) B.c” value was 5 (hyphal expansion-inhibiting rate: 80% or more).
As for `COC(=O)[C@@]1(CCl)CC[C@H](Cc2ccc(F)cc2)[C@@]1(O)Cn1cncn1` (racemic) [Compound I-78, methyl-(1RS, 2SR,3RS)-3-(4-fluorobenzyl)-1-chloromethyl-2-hydroxy-2-(1H-1,2,4-triazol-1-ylmethyl)cyclopentanecarboxylate], in series [1], the “Growth inhibition (hyphal expansion-inhibiting rate grade) A.m” value is reported as 5 (hyphal expansion-inhibiting rate: 80% or more). The “Growth inhibition (hyphal expansion-inhibiting rate grade) F.g” value in series [2] is listed as 5 (hyphal expansion-inhibiting rate: 80% or more). Besides, in series [3], the “Growth inhibition (hyphal expansion-inhibiting rate grade) G.f” value is on record as 5 (hyphal expansion-inhibiting rate: 80% or more). Besides, the “Growth inhibition (hyphal expansion-inhibiting rate grade) P.o” value in series [4] was 5 (hyphal expansion-inhibiting rate: 80% or more). The “Growth inhibition (hyphal expansion-inhibiting rate grade) U.n” value in [5] was 5 (hyphal expansion-inhibiting rate: 80% or more). The Controlling index in series [6] is on record as 5 (81 to 100). In addition, the “Growth inhibition (hyphal expansion-inhibiting rate grade) P.h” value in series [7] is on record as 5 (hyphal expansion-inhibiting rate: 80% or more). For the same molecule, the inhibition at 50 µg/mL in series [8] (336 h, Concentration 50 mg/L) was > 80%. Further, in series [9], the “Growth inhibition (hyphal expansion-inhibiting rate grade) P.n” value is 5 (hyphal expansion-inhibiting rate: 80% or more). For the same molecule, the “Growth inhibition (hyphal expansion-inhibiting rate grade) S.s” value in [10] was 5 (hyphal expansion-inhibiting rate: 80% or more). For the same molecule, the “Growth inhibition (hyphal expansion-inhibiting rate grade) F.c” value in series [11] is recorded as 5 (hyphal expansion-inhibiting rate: 80% or more). For the same molecule, in series [12], the “Growth inhibition (hyphal expansion-inhibiting rate grade) R.sec” value is reported as 5 (hyphal expansion-inhibiting rate: 80% or more). In addition, the “Growth inhibition (hyphal expansion-inhibiting rate grade) B.c” value in [13] is reported as 5 (hyphal expansion-inhibiting rate: 80% or more).
Regarding `C#CCOC(=O)[C@]1(C)CC[C@H](Cc2ccc(Cl)cc2)[C@@]1(O)Cn1cncn1` (racemic) [Compound I-135, 2-propynyl-(1RS,2SR,3RS)-3-(4-chlorobenzyl)-2-hydroxy-1-methyl-2-(1H-1,2,4-triazol-1-ylmethyl)cyclopentanecarboxylate], the “Growth inhibition (hyphal expansion-inhibiting rate grade) A.m” value in [1] is listed as 5 (hyphal expansion-inhibiting rate: 80% or more). Also, the “Growth inhibition (hyphal expansion-inhibiting rate grade) F.g” value in series [2] is on record as 5 (hyphal expansion-inhibiting rate: 80% or more). Besides, the “Growth inhibition (hyphal expansion-inhibiting rate grade) G.f” value in [3] is given as 5 (hyphal expansion-inhibiting rate: 80% or more). The “Growth inhibition (hyphal expansion-inhibiting rate grade) P.o” value in [4] is given as 5 (hyphal expansion-inhibiting rate: 80% or more). Further, the “Growth inhibition (hyphal expansion-inhibiting rate grade) U.n” value in series [5] was 5 (hyphal expansion-inhibiting rate: 80% or more). In series [6], the Controlling index is reported as 5 (81 to 100). The “Growth inhibition (hyphal expansion-inhibiting rate grade) P.h” value in series [7] was 5 (hyphal expansion-inhibiting rate: 80% or more). Further, the Growth inhibition in series [8] (Concentration 50 mg/L) was 5 (hyphal expansion-inhibiting rate: 80% or more). For the same molecule, the “Growth inhibition (hyphal expansion-inhibiting rate grade) P.n” value in series [9] is reported as 5 (hyphal expansion-inhibiting rate: 80% or more). Also, in series [10], the “Growth inhibition (hyphal expansion-inhibiting rate grade) S.s” value is 5 (hyphal expansion-inhibiting rate: 80% or more). Moreover, the “Growth inhibition (hyphal expansion-inhibiting rate grade) F.c” value in [11] was 5 (hyphal expansion-inhibiting rate: 80% or more). In [12], the “Growth inhibition (hyphal expansion-inhibiting rate grade) R.sec” value is listed as 5 (hyphal expansion-inhibiting rate: 80% or more). Further, the “Growth inhibition (hyphal expansion-inhibiting rate grade) B.c” value in series [13] was 5 (hyphal expansion-inhibiting rate: 80% or more).
